Experimental data reported in patent US10408843B2, “Compositions and methods for detecting S-nitrosylation and S-sulfinylation” (The Regents of the University of Michigan, priority 2013, dated 2019).

Columns and labels:
[1] = type: physicochemical
Protocol: S-nitrosoglutathione (GSNO, Cayman) and sodium phenylsulfinate (Sigma-Aldrich) were used for rate-determination studies at four pH values: pH 1.0 (0.2 N HCl/KCl buffer), pH 4.0 (0.1 M Sodium acetate/Acetic Acid buffer), pH 7.0 (0.1 M potassium phosphate buffer) and pH 10.0 (0.1 M Sodium bicarbonate/Sodium hydroxide buffer). The purity of S-nitrosoglutathione was calculated as 94±1.3% by absorbance at 334 nm using the molar extinction coefficient of 900 M^−1 cm^−1. Assays were performed using a plate reader (Tecan Infinite F500) monitoring absorbance of 2 mM GSNO at 340 nm over a course of 90 minutes in the presence of varying concentrations of sodium phenylsulfinate. Additional experiments confirmed thiosulfonate stability for >5 hours at pH 1, 4, and 7, but hydrolysis at pH 10. GSNO was stable in 6 M urea/PBS for >1 hour. Absorbance data was imported into KaleidaGraph (version 4.02, Synergy Software), and logarithmically fit to the first order exponential decay. The Kobs was calculated for each phenylsulfinic acid concentration, and plotted to calculate the rate constant for the overall reaction.

[2] = test system: S-sulfinylated proteins in mammalian lysates; experiment: Gel-based analysis of S-sulfinylation with biotin-GSNO; type: biochemical; conditions: lysates in 6 M urea/PBS, pre-alkylated with iodoacetamide
Excerpt: (§1) FIG. 20A-C. S-nitrosothiol probes detect endogenous S-sulfinylation. (a) Direct conjugation of human DJ-1 (Cys106-SO2H) with N-acetyl-S-nitrosocysteine methyl ester. (b) MS/MS assignment of product ions from the S-sulfinylated peptide of human DJ-1, confirming direct thiosulfonate formation. (c) Gel-based analysis of S-sulfinylation in mammalian lysates with biotin-GSNO. Lysates are denatured and pre-alkylated with iodoacetamide.
It was next asked what would happen if the detection scheme was reversed, using S-nitrosothiol-linked probes to detect endogenous S-sulfinylation. Similar reactivity was recently reported using aryl-nitroso ligation to several sulfinic acid standards, including glutathione, to form a stable N-sulfonylbenzisoxazolone (see, e.g., Lo Conte, M. & Carroll, K. S. Angew Chem Int Ed Engl 51, 6502-5 (2012)). Despite such progress, there are no reported methods to selectively profile endogenous S-sulfinylation in complex proteomes. In order to test this approach, recombinant human DJ-1 was purified, a redox chaperone that spontaneously forms a stable sulfinic acid at Cys106 (see, e.g., Canet-Aviles, R. M. et al. Proc Natl Acad Sci USA 101, 9103-8 (2004)). After iodoacetamide alkylation of free thiols, N-acetyl-S-nitrosocysteine methyl ester was added to DJ-1, and processed for high-resolution LC-MS analysis (FIG. 20A and FIG. 21)). […]

human DJ-1 (Cys106-SO2H) = target: T1, human DJ-1 (Cys106-SO2H) (Homo sapiens, UniProt Q99497); experiment: LC-MS analysis of DJ-1 conjugation with an S-nitrosothiol; type: biochemical; conditions: after iodoacetamide alkylation
T1 construct: 6His; made in house; host or cells: E. coli BL21
T1 sequence (Q99497 1-189): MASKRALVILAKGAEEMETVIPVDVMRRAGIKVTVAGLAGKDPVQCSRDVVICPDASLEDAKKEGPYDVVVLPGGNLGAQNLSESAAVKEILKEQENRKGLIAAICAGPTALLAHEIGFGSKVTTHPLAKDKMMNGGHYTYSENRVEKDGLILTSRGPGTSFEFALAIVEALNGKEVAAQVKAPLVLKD
Excerpt: as §1
It was next asked what would happen if the detection scheme was reversed, using S-nitrosothiol-linked probes to detect endogenous S-sulfinylation. Similar reactivity was recently reported using aryl-nitroso ligation to several sulfinic acid standards, including glutathione, to form a stable N-sulfonylbenzisoxazolone (see, e.g., Lo Conte, M. & Carroll, K. S. Angew Chem Int Ed Engl 51, 6502-5 (2012)). Despite such progress, there are no reported methods to selectively profile endogenous S-sulfinylation in complex proteomes. […]
Purified human GAPDH was diluted to 0.2 mg/mL in phosphate buffered saline (pH 7.3), and treated with 20 mM iodoacetamide for 30 minutes. […] Eluted peptides were analyzed using a Waters Synapt G2-S HDMS time-of-flight mass spectrometer in positive mode. […] MS data was searched using Waters Protein Lynx Global Server v3.0 using the exact mass calculated for the cysteine thiosulfonate modification.

## N[C@@H](CCC(=O)N[C@@H](CSN=O)C(=O)NCC(=O)O)C(=O)O [GSNO, S-nitrosoglutathione, reference compound]
[1]
  stability: > 1 h

## O=NSC[C@H](NC(=O)CCC(NC(=O)CCCC[C@@H]1SC[C@@H]2NC(=O)N[C@@H]21)C(=O)O)C(=O)NCC(=O)O (stereo partly drawn) [biotin-GSNO, 5-(((R)-1-((carboxymethyl)amino)-3-(nitrosothio)-1-oxopropan-2-yl)amino)-5-oxo-2-(5-((3aS,4S,6aR)-2-oxohexahydro-1H-thieno[3,4-d]imidazol-4-yl)pentanamido)pentanoic Acid]
[2]
  labeling of S-sulfinylated proteins: distinct profile of putative S-sulfinylated proteins

## COC(=O)[C@H](CSN=O)NC(C)=O [N-acetyl-S-nitrosocysteine methyl ester, (R)-methyl 2-acetamido-3-(nitrosothio)propanoate]
Human DJ-1 (Cys106-SO2H)
  thiosulfonate formation with DJ-1: confirmed thiosulfonate formation at Cys106-SO2H
